Experimental data as given in US4330550A, “Oxoimidazolinealkanoic acids and their salts and esters, their preparation and pharmaceutical compositions containing them” (A. Nattermann & Cie. GmbH, priority 1979, dated 1982).
Where a name gives a salt, the structure may show the parent alone.

Test system: collagen-induced aggregation of platelets (human plasma with a high platelet content)
Assay: Inhibition of collagen-induced aggregation of thrombocytes in vitro (method of Born)
Format: cell-based
Details: 0.3 μmol/ml
Text: The aggregation of platelets in the presence of the compounds of the invention has been tested by the collagen-induced aggregation method of Born., Nature 4832/927, 29 (1962). The effect of the compounds in inhibiting thrombocyte aggregation was investigated in vitro on human plasma with a high platelet content.
The percentage inhibition of collagen-induced aggregation in vitro by compounds from the Examples indicated in Table 3, or combinations thereof with heparin, at a final concentration of 0.3 or 0.6 μmol of compound per ml of human plasma with a high platelet content, can be seen from the following Table.

SMILES	% inhibition compared with the control (collagen-induced aggregation)
O=C(O)CCCCCCn1c(-c2ccccc2)c[nH]c1=O [Example 2c]	46%
O=C(O)CCCCCCn1c(-c2ccc(Cl)cc2)c[nH]c1=O [Example 5c]	63%
O=C(O)CCCCCCCn1c(-c2ccccc2)c[nH]c1=O [Example 1c, sodium salt of 8-(2-oxo-5-phenyl-4-imidazolin-1-yl)-caprylic acid]	80%
